Molecular target: T1, human Trk A kinase (Homo sapiens, UniProt P04629)
T1 construct: HIS; made in house; host or cells: SF9 insect cells
Assay: Trk A Assay (Alphascreen kinase assay)
Assay type: biochemical
Conditions: 70 μM ATP, PolyEY-biotin substrate, 20 minutes, room temperature, read-out: Trk inhibitory activity IC50
Method: After incubation of the kinase with a biotinylated substrate and adenosine triphosphate (ATP) for 20 minutes at room temperature, the kinase reaction was stopped by the addition of 30 mM ethylenediaminetetraacetic acid (EDTA). The reaction was performed in 384 well microtitre plates and the reaction products were detected with the addition of strepavidin coated Donor Beads and phosphotyrosine-specific antibodies coated Acceptor Beads using the EnVision Multilabel Plate Reader after an overnight incubation at room temperature.

T1 sequence (P04629 442-796): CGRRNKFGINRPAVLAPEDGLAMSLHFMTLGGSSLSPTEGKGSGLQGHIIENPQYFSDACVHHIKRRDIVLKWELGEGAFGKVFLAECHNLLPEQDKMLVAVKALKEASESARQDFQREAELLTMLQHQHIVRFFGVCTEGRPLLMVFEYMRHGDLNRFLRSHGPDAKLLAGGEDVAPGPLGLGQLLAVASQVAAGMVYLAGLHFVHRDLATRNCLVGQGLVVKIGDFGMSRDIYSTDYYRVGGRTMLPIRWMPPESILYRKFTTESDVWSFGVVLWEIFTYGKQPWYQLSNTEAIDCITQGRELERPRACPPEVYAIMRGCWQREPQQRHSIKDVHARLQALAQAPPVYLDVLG

- IC50: 10 nM
SMILES: C[C@H](Nc1ncc(F)c(Nc2cc(C3CC3)[nH]n2)n1)c1ccc(F)cn1 [Example 3, (S)-5-Fluoro-N^1-(5-cyclopropyl-1H-pyrazol-3-yl)-N^2-(1-(5-fluoropyridin-2-yl)ethyl)pyrimidine-2,4-diamine]

Source: US8114989B2, “Pyrazolylaminopyrimidine derivatives useful as tyrosine kinase inhibitors” (AstraZeneca AB, priority 2005, dated 2012)
